The values below are quoted from earlier work in patent US5965160A, “Self-emulsifiable formulation producing an oil-in-water emulsion” (priority 1998, dated 1999).

The conditions of this series: sealed entero-coated hard gelatine capsule; Barnwell et al, 1992.

Consider `CC(C)NCC(O)COc1cccc2ccccc12` (stereo not shown) [propranolol], for which the “oral bioavailability (in words)” value was “can be improved by dissolving the drug in a lipid formulation containing mainly oleic acid”.
